Marks after values point to notes of the source that are not given here.
Tests used:
[1] = test system: ICAM-1 expression for THP-1 cells; assay: Inhibitory activity against TNF-α-induced ICAM-1 expression in THP-1 cells; type: cell-based, human; details: 30 μM, TNF-α 10 ng/ml
Protocol: The following is the process of experiment on inhibitory activity against ICAM-1 expression for THP-1 cells.
THP-1 cells were cultured in CO2 incubator (5% CO2, 95% relative humidity, 37° C.) using RPMI-1640 broth (RPMI-1640, Gibco BRL 23400-021, 1.62%; 0.2% NaHCO3; 1% antimicrobial agents with penicillin and streptomycin mixed) with 10% fetal bovine serum (Gibco BRL 26140-079, FBS) added to the culture media. Samples for test were melted in DMSO, diluted with phosphate buffered saline solution (PBS) to below 5% and added to reactive solution by 5%, so as to set the concentration of DMSO with samples melted therein not to exceed 0.25% in the final solution. 200 μl of THP-1 cells (2.5×10^5 cells/ml) was divided into each well of 96-well with addition of 10 μl of solution prepared at constant concentration. After culturing it in 37° C. CO2 incubator for 1 hour, TNF-α (final concentration: 10 ng/ml) was added to induce ICAM-1 expression and it was cultured in CO2 incubator for 16 more hours. The reactive solution was made to isolate nonspecific bonding part by adding 25 μl of glutaraldehyde buffer solution (glutaraldehyde 2.08% in PBS) to set cells at well, washing it with PBST (0.005% tween-20 in PBS) and adding 3% skim milk. […] Then, the inhibition ratio of the expression by samples was calculated after measuring absorbance at 490 nm and ICAM-1 expression of THP-1 cells by TNF-α.

atherosclerotic lesion = assay: Inhibitory activity against atherosclerotic lesion in LDLR−/− mice on high cholesterol diet; type: in vivo; details: 1.0% in high cholesterol diet, 8 weeks
Description: The process of experiment on inhibitory activity of atherosclerotic lesion described in detail is as follows. Step I) Mouse Breeding and Experiment on Administration of the Extract of […] rugosa to the Mouse […] During the experiment, the mice had free access to water and food. Step II) Measurement of Atherosclerotic Lesion Models After 8 weeks of experiment, the blood was gathered through the eyes of all mice. Then, PBS ([…]) was flowed through the heart and the artery of mice for 10 minutes and subsequently paraformaldehyde was flowed through for 5 minutes. […] Six frozen sections (9 μm each), prepared beginning from the area of artery using microtome maintaining low temperature (-20° C.), were stained with Oil red O and counter-stained with Harris hematoxylin. These stained sections were then quantified by computer-assisted morphometry and the average lesion size was calculated for each animal group. In this manner, inhibitory activity against sample group's lesion according to outbreak of control group's lesion was calculated.

Row | Compound | Inhibitory activity of ICAM-1 expression (%) [1] [%] | Lesion size (μm^2) (atherosclerotic lesion) | Inhibitory activity (%) against atherosclerotic lesion (atherosclerotic lesion; vs control group)
1 | C[C@@H]1C[C@H]2[C@@H]3CCC4=CC(=O)C=C[C@]4(C)[C@@]3(F)[C@@H](O)C[C@]2(C)[C@@]1(O)C(=O)CO [Dexamethasone, dexamethasone, reference compound] | 40.1 ± 1.7 |  | 
2 | CC[C@H](C)C(=O)O[C@H]1C[C@@H](C)C=C2C=C[C@H](C)[C@H](CC[C@@H]3C[C@@H](O)CC(=O)O3)[C@H]21 [Lovastatin, lovastatin, reference compound] |  | 291442.0 ± 96927.8 | 50.9*** %
